Test results as given in ChEMBL document CHEMBL1201862, “PubChem BioAssay data set” (2004).
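Results reflect a 48-hour exposure of cells in 96-well plates to compound at five concentrations. The concentration for 50% growth inhibition is given as GI50.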 Calls of active or inactive are those of the source. No stated cut-off is given here; in the data, active = GI50 up to about 1.1 µM and inactive = higher.

Key:
Assay in all cases: NCI-60 cell line screen, 48 h
[1] = system: OVCAR-4
[2] = system: SW-620
[3] = system: 786-0
[4] = system: MDA-MB-231
[5] = system: EKVX
[6] = system: SN12C
[7] = system: HCT-116
[8] = system: TK-10
[9] = system: HOP-92
[10] = system: HOP-62
[11] = system: Hs-578T
[12] = system: HCC 2998
[13] = system: UO-31
[14] = system: A549
[15] = system: OVCAR-5
[16] = system: RXF 393
[17] = system: Malme-3M
[18] = system: NCI-H460
[19] = system: MCF7
[20] = system: MDA-N
[21] = system: SK-MEL-28
[22] = system: IGROV-1
[23] = system: LOX IMVI
[24] = system: COLO 205
[25] = system: HL-60
[26] = system: A498
[27] = system: K562
[28] = system: UACC-257
[29] = system: ACHN
[30] = system: CCRF-CEM
[31] = system: HT-29
[32] = system: RPMI-8226
[33] = system: SF-295
[34] = system: SF-539
[35] = system: BT-549
[36] = system: NCI/ADR-RES
[37] = system: PC-3
[38] = system: KM12
[39] = system: OVCAR-8
[40] = system: SK-MEL-5
[41] = system: MDA-MB-435
[42] = system: HCT-15
[43] = system: SNB-19
[44] = system: CAKI-1
[45] = system: NCI-H23
[46] = system: SF-268
[47] = system: SR
[48] = system: U-251
[49] = system: NCI-H522
[50] = system: MOLT-4
[51] = system: OVCAR-3
[52] = system: SNB-75
[53] = system: NCI-H226
[54] = system: DU-145

CC(C)(C)OC(=O)NC(Cc1ccc(OCc2ccccc2)cn1)C(N)=O (centres undefined)
GI50 [1]: 45.7 µM (inactive) | GI50 [2]: > 100 µM (inactive) | GI50 [3]: > 100 µM (inactive) | GI50 [4]: > 100 µM (inactive) | GI50 [5]: > 100 µM (inactive) | GI50 [6]: > 100 µM (inactive) | GI50 [7]: > 100 µM (inactive) | GI50 [8]: > 100 µM (inactive) | GI50 [9]: > 100 µM (inactive) | GI50 [10]: > 100 µM (inactive) | GI50 [11]: > 100 µM (inactive) | GI50 [12]: > 100 µM (inactive) | GI50 [13]: 82.6 µM (inactive) | GI50 [14]: > 100 µM (inactive) | GI50 [15]: > 100 µM (inactive) | GI50 [16]: > 100 µM (inactive) | GI50 [17]: > 100 µM (inactive) | GI50 [18]: > 100 µM (inactive) | GI50 [19]: 46.3 µM (inactive) | GI50 [20]: 68.5 µM (inactive) | GI50 [21]: > 100 µM (inactive) | GI50 [22]: > 100 µM (inactive) | GI50 [23]: > 100 µM (inactive) | GI50 [24]: > 100 µM (inactive) | GI50 [25]: > 100 µM (inactive) | GI50 [26]: > 100 µM (inactive) | GI50 [27]: > 100 µM (inactive) | GI50 [28]: 75.2 µM (inactive) | GI50 [29]: > 100 µM (inactive) | GI50 [30]: > 100 µM (inactive) | GI50 [31]: > 100 µM (inactive) | GI50 [32]: > 100 µM (inactive) | GI50 [33]: > 100 µM (inactive) | GI50 [34]: > 100 µM (inactive) | GI50 [35]: > 100 µM (inactive) | GI50 [36]: 89.9 µM (inactive) | GI50 [37]: > 100 µM (inactive) | GI50 [38]: > 100 µM (inactive) | GI50 [39]: > 100 µM (inactive) | GI50 [40]: 26 µM (inactive) | GI50 [41]: > 100 µM (inactive) | GI50 [42]: 54.7 µM | GI50 [43]: > 100 µM (inactive) | GI50 [44]: > 100 µM (inactive) | GI50 [45]: 86.5 µM (inactive) | GI50 [46]: > 100 µM (inactive) | GI50 [47]: > 100 µM (inactive) | GI50 [48]: > 100 µM (inactive) | GI50 [49]: 80 µM (inactive) | GI50 [50]: > 10 µM (inactive) | GI50 [51]: 94.8 µM (inactive) | GI50 [52]: > 100 µM (inactive) | GI50 [53]: 97.3 µM (inactive) | GI50 [54]: > 100 µM (inactive)
